Results: patent publication US20150197492A1, “NOVEL INDENO[1,2-c]QUINOLIN-11-ONE DERIVATIVES, PREPARATION METHOD AND APPLICATION THEREOF” (National Defense Medical Center, priority 2014, published 2015)
pIC50: −log10 of the molar value.

How the values were obtained:
Assay type in all cases: cell-based
[1] = tested on: ACHN; test: cells; details: ACHN (Renal Cancer), 10 μM, 48 hours
[2] = tested on: MCF7; test: cells; details: MCF7 (Breast Cancer), 10 μM, 48 hours
[3] = tested on: 55 to 60 cancer cell lines; details: 10 μM
[4] = tested on: M14; test: cells; details: M14 (Melanoma), 10 μM, 48 hours
[5] = tested on: 786-0; test: cells; details: 786-0 (Renal Cancer), 10 μM, 48 hours
[6] = tested on: HOP-62; test: cells; details: HOP-62 (Non-Small Cell Lung Cancer), 10 μM, 48 hours
[7] = tested on: SK-MEL-2; test: cells; details: SK-MEL-2 (Melanoma), 10 μM, 48 hours
[8] = tested on: UACC-257; test: cells; details: UACC-257 (Melanoma), 10 μM, 48 hours
[9] = tested on: RXF 393; test: cells; details: RXF 393 (Renal Cancer), 10 μM, 48 hours
[10] = tested on: SF-295; test: cells; details: SF-295 (CNS Cancer), 10 μM, 48 hours
[11] = tested on: EKVX; test: NCI cancer cell cytotoxicity assay, Non-Small Cell Lung Cancer EKVX; details: 10 μM, 48 hours
[12] = tested on: NCI-H522; test: cells; details: NCI-H522 (Non-Small Cell Lung Cancer), 10 μM, 48 hours
[13] = tested on: NCI-H226; test: cells; details: NCI-H226 (Non-Small Cell Lung Cancer), 10 μM, 48 hours
[14] = tested on: SF-539; test: cells; details: SF-539 (CNS Cancer), 10 μM, 48 hours
[15] = tested on: MALME-3M; test: cells; details: MALME-3M (Melanoma), 10 μM, 48 hours
[16] = tested on: HCT-15; test: cells; details: HCT-15 (Colon Cancer), 10 μM, 48 hours
[17] = tested on: SN12C; test: cells; details: SN12C (Renal Cancer), 10 μM, 48 hours
[18] = tested on: KM12; test: cells; details: KM12 (Colon Cancer), 10 μM, 48 hours
[19] = tested on: OVCAR-5; test: cells; details: OVCAR-5 (Ovarian Cancer), 10 μM, 48 hours
[20] = tested on: T-47D; test: cells; details: T-47D (Breast Cancer), 10 μM, 48 hours
[21] = tested on: human PC-3 cells; test: Sulforhodamine B (SRB) assay, cytotoxicity against PC-3 cells; details: Homo sapiens; SRB assay, PC-3 cells, 48 hours; read-out: IC50
In short: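 PC-3 cells in 5% FBS were fixed with 10% TCA after 24 h as T0, then treated with compound for 48 h, fixed, stained with 0.4% SRB in 1% acetic acid and solubilized in 10 mmol/L Trizma base. Absorbance was read at 515 nm. GI% = 100−[(Tx−T0)/(C−T0)]×100, and IC50 is the concentration halving total protein.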

[22] = tested on: SNB-19; test: cells; details: SNB-19 (CNS Cancer), 10 μM, 48 hours
[23] = tested on: HOP-92; test: cells; details: HOP-92 (Non-Small Cell Lung Cancer), 10 μM, 48 hours
[24] = tested on: NCI/ADR-RES; test: cells; details: NCI/ADR-RES (Ovarian Cancer), 10 μM, 48 hours
[25] = tested on: DU-145; test: cells; details: DU-145 (Prostate Cancer), 10 μM, 48 hours
[26] = tested on: SK-MEL-5; test: cells; details: SK-MEL-5 (Melanoma), 10 μM, 48 hours
[27] = tested on: OVCAR-8; test: cells; details: OVCAR-8 (Ovarian Cancer), 10 μM, 48 hours
[28] = tested on: CCRF-CEM; test: cells; details: CCRF-CEM (Leukemia), 10 μM, 48 hours
[29] = tested on: UO-31; test: cells; details: UO-31 (Renal Cancer), 10 μM, 48 hours
[30] = tested on: CAKI-1; test: cells; details: CAKI-1 (Renal Cancer), 10 μM, 48 hours

Structure (SMILES): O=C1c2cc(Cl)ccc2-c2c(Cl)nc3ccccc3c21 [TC-XCl-1, 6,9-Dichloro-11H-indeno[1,2-c]quinolin-11-one]
- growth percentage [1]: 111.67%
- growth percentage [2]: 74.25%
- Mean (mean growth percentage of the tested cancer cell lines) ([3]; 48 hours, all tested cell lines): 98.17%
- number of cancer cell lines whose growth is inhibited ([3]; including leukemia and breast cancer cells): 9
- growth percentage [4]: 109.79%
- growth percentage [5]: 112.40%
- growth percentage [6]: 94.89%
- growth percentage [7]: 117.11%
- growth percentage [8]: 127.99%
- growth percentage [9]: 112.80%
- growth percentage [10]: 92.80%
- growth percentage [11]: 79.27%
- growth percentage [12]: 89.37%
- growth percentage [13]: 91.86%
- growth percentage [14]: 110.08%
- growth percentage [15]: 102.06%
- growth percentage [16]: 114.88%
- growth percentage [17]: 88.03%
- growth percentage [18]: 111.92%
- growth percentage [19]: 137.00%
- growth percentage [20]: 86.97%
- pIC50 [21]: < 4.82
- growth percentage [22]: 101.30%
- growth percentage [23]: 71.94%
- growth percentage [24]: 96.78%
- growth percentage [25]: 113.91%
- growth percentage [26]: 86.30%
- growth percentage [27]: 101.08%
- growth percentage [28]: 64.86%
- growth percentage [29]: 80.62%
- growth percentage [30]: 75.67%
